# Target: T1, B1R receptor of the rat (rB1R) (Rattus norvegicus, UniProt P97583)
# T1 construct: expressed in transfected cells; host or cells: CHO K1 cells
# T1 sequence (P97583 1-337): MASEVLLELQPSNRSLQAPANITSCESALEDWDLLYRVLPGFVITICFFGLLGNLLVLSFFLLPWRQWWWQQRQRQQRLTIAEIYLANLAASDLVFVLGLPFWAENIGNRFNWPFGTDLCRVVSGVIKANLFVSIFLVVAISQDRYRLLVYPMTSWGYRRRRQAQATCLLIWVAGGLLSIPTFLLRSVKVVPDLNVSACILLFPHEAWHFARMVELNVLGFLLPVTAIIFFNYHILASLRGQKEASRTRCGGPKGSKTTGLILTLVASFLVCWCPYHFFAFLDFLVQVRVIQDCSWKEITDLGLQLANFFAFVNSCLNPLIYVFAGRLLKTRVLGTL
# Experiment: Functional investigation on the bradykinin 1 receptor (B1R), FLIPR Ca2+ assay, rB1R cells
# Type: cell-based
# Settings: 10 μM test substance; CHO K1 cells with rat B1R; agonist Des-Arg9 bradykinin; % of maximum achievable inhibition; 10 µM
# Outline: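 Ca2+ influx is measured as peak Fluo-4 fluorescence in a FLIPR protocol with two substance additions, following Lys-Des-[MUT] bradykinin (0.5 nM) or Des-[MUT] bradykinin (100 nM) challenge. Varying antagonist concentrations give % inhibition relative to maximum achievable and an IC50. Determinations in duplicate or triplicate, repeated independently (N>=2).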
row,"B1R antagonism, rat [10 μM] % inhibition [%]",Compound
1,78,"COc1cc(C)c(S(=O)(=O)Nc2ccc3ccn(CC(=O)N4CCC(CCN5CCCC5)CC4)c3c2)c(C)c1 [Compound G-01, 4-Methoxy-2,6-dimethyl-N-[1-[2-oxo-2-[4-(2-pyrrolidin-1-yl-ethyl)-piperidin-1-yl]-ethyl]-1H-indol-6-yl]-benzenesulfonic acid amide]"
2,96,"COc1cc(C)c(S(=O)(=O)Nc2cccc3ccn(CC(=O)N4CCC5(CC4)CCN(c4ccncc4)CC5)c23)c(C)c1 [Compound G-05, 4-Methoxy-2,6-dimethyl-N-[1-[2-oxo-2-(9-pyridin-4-yl-3,9-diazaspiro[5.5]undecan-3-yl)-ethyl]-1H-indol-7-yl]-benzenesulfonic acid amide]"
3,76,"O=C(CCn1ccc2cccc(N3Cc4cccc(Cl)c4C3=O)c21)N1CCC2(CC1)CCN(c1ccncc1)CC2 [Compound G-10, 7-Chloro-2-(1-(3-oxo-3-(9-(pyridin-4-yl)-3,9-diazaspiro[5.5]undecan-3-yl)propyl)-1H-indol-7-yl)isoindolin-1-one]"

# Same assay, conditions: CHO-K1, 10 μM test substance; CHO K1 cells with rat B1R; agonist Des-Arg9 bradykinin; % of maximum achievable inhibition; read-out: B1R antagonism, rat [10 μM] % inhibition
row,inhibition at 10 µM [%],Compound
1,100,"COc1cc(C)c(S(=O)(=O)Nc2cccc3ccn(CC(=O)N4CCC(CCN5CCCC5)CC4)c23)c(C)c1 [Compound G-02, 4-Methoxy-2,6-dimethyl-N-[1-[2-oxo-2-[4-(2-pyrrolidin-1-yl-ethyl)-piperidin-1-yl]-ethyl]-1H-indol-7-yl]-benzenesulfonic acid amide]"
2,62,"COc1cc(C)c(S(=O)(=O)Nc2cccc3ccn(CC(=O)N4CCC5(CC4)C(=O)NCN5c4ccccc4)c23)c(C)c1 [Compound G-04, 4-Methoxy-2,6-dimethyl-N-[1-[2-oxo-2-(1-oxo-4-phenyl-2,4,8-triazaspiro[4.5]decan-8-yl)-ethyl]-1H-indol-7-yl]-benzenesulfonic acid amide]"
3,70,"COc1cc(C)c(S(=O)(=O)Nc2cccc3ccn(CC(=O)N4CCC(OCCN5CCCC5)(c5cccnc5)CC4)c23)c(C)c1 [Compound G-06, 4-Methoxy-2,6-dimethyl-N-[1-[2-oxo-2-[4-pyridin-3-yl-4-(2-pyrrolidin-1-yl-ethoxy)-piperidin-1-yl]-ethyl]-1H-indol-7-yl]-benzenesulfonic acid amide]"
4,100,"O=C(CCn1ccc2ccc(N3Cc4cccc(Cl)c4C3=O)cc21)N1CCC2(CC1)CCN(c1ccncc1)CC2 [Compound G-07, 7-Chloro-2-[1-[3-oxo-3-(9-pyridin-4-yl-3,9-diazaspiro[5.5]undecan-3-yl)-propyl]-1H-indol-6-yl]-2,3-dihydro-isoindol-1-one]"
5,97,"O=C(Cn1ccc2ccc(N3Cc4cccc(Cl)c4C3=O)cc21)N1CCC2(CC1)CCN(c1ccncc1)CC2 [Compound G-08, 7-Chloro-2-[1-[2-oxo-2-(9-pyridin-4-yl-3,9-diazaspiro[5.5]undecan-3-yl)-ethyl]-1H-indol-6-yl]-2,3-dihydro-isoindol-1-one]"
6,-21,"O=C(Cn1ccc2cccc(N3Cc4cccc(Cl)c4C3=O)c21)N1CCC2(CC1)CCN(c1ccncc1)CC2 [Compound G-11, 7-Chloro-2-(1-(2-oxo-2-(9-(pyridin-4-yl)-3,9-diazaspiro[5.5]undecan-3-yl)ethyl)-1H-indol-7-yl)isoindolin-1-one]"
7,92,"O=C(Cn1ccc2ccc(N3Cc4cccc(Cl)c4C3=O)cc21)N1CCC2(CCN(c3ccncc3)CC2)C1 [Compound G-12, 7-Chloro-2-(1-(2-oxo-2-(8-(pyridin-4-yl)-2,8-diazaspiro[4.5]decan-2-yl)ethyl)-1H-indol-6-yl)isoindolin-1-one]"
8,96,"COc1cc(C)c(S(=O)(=O)Nc2cccc3ccn(CC(=O)N4CCC5(CC4)CC(c4ccncc4)=NO5)c23)c(C)c1 [Compound G-13, 4-Methoxy-2,6-dimethyl-N-(1-(2-oxo-2-(3-(pyridin-4-yl)-1-oxa-2,8-diazaspiro[4.5]dec-2-en-8-yl)ethyl)-1H-indol-7-yl)benzenesulfonic acid amide]"
9,96,"COc1cc(C)c(S(=O)(=O)Nc2cccc3ccn(CC(=O)N4CCC5(CCN(c6ccncc6)CC5)C4)c23)c(C)c1 [Compound G-14, 4-Methoxy-2,6-dimethyl-N-(1-(2-oxo-2-(8-(pyridin-4-yl)-2,8-diazaspiro[4.5]decan-2-yl)ethyl)-1H-indol-7-yl)benzenesulfonic acid amide]"
10,54,"O=C(Cn1ccc2ccc(N3Cc4cccc(Cl)c4C3=O)cc21)N1CCC2(CC1)CC(c1ccncc1)=NO2 [Compound G-15, 7-Chloro-2-(1-(2-oxo-2-(3-(pyridin-4-yl)-1-oxa-2,8-diazaspiro[4.5]dec-2-en-8-yl)ethyl)-1H-indol-6-yl)isoindolin-1-one]"
11,96,"COc1cc(C)c(S(=O)(=O)Nc2cccc3ccn(CC(=O)N4CCC(N5CCc6cc(CN7CCCCC7)ccc6C5)C4)c23)c(C)c1 (stereo not shown) [Compound G-16, 4-Methoxy-2,6-dimethyl-N-(1-(2-oxo-2-(3-(6-(piperidin-1-ylmethyl)-3,4-dihydroisoquinolin-2(1H)-yl)pyrrolidin-1-yl)ethyl)-1H-indol-7-yl)benzenesulfonic acid amide]"
12,95,"COc1cc(C)c(S(=O)(=O)Nc2cccc3ccn(CC(=O)N4CCC5(CCN(c6ccncc6)C5)C4)c23)c(C)c1 (stereo not shown) [Compound G-17, 4-Methoxy-2,6-dimethyl-N-(1-(2-oxo-2-(7-(pyridin-4-yl)-2,7-diazaspiro[4.4]nonan-2-yl)ethyl)-1H-indol-7-yl)benzenesulfonic acid amide]"
13,99,"COc1cc(C)c(S(=O)(=O)Nc2cccc3ccn(CC(=O)N4CCC5(CCC(N6CCC6)CC5)CC4)c23)c(C)c1 [Compound G-18, N-(1-(2-(9-(azetidin-1-yl)-3-azaspiro[5.5]undecan-3-yl)-2-oxoethyl)-1H-indol-7-yl)-4-methoxy-2,6-dimethylbenzenesulfonic acid amide]"
14,94,"O=C(Cn1ccc2ccc(N3Cc4cccc(Cl)c4C3=O)cc21)N1CCC2(CCC(Oc3ccncc3)CC2)CC1 [Compound G-19, 7-Chloro-2-(1-(2-oxo-2-(9-(pyridin-4-yloxy)-3-azaspiro[5.5]undecan-3-yl)ethyl)-1H-indol-6-yl)isoindolin-1-one]"
15,13,"O=C(Cn1ccc2ccc(N3Cc4cccc(Cl)c4C3=O)cc21)N1CCC2(CCC(N3CC(F)(F)C3)CC2)CC1 [Compound G-20, 7-Chloro-2-(1-(2-(9-(3,3-difluoroazetidin-1-yl)-3-azaspiro[5.5]undecan-3-yl)-2-oxoethyl)-1H-indol-6-yl)isoindolin-1-one]"
16,43,"O=C(Cn1ccc2ccc(N3Cc4cccc(Cl)c4C3=O)cc21)N1CCC2(CCC(N3CCC3)CC2)CC1 [Compound G-21, 2-(1-(2-(9-(Azetidin-1-yl)-3-azaspiro[5.5]undecan-3-yl)-2-oxoethyl)-1H-indol-6-yl)-7-chloroisoindolin-1-one]"
17,99,"COc1cc(C)c(S(=O)(=O)Nc2cccc3ccn(CC(=O)N4CCC5(CCC(Oc6ccncc6)CC5)CC4)c23)c(C)c1 [Compound G-22, 4-Methoxy-2,6-dimethyl-N-(1-(2-oxo-2-(9-(pyridin-4-yloxy)-3-azaspiro[5.5]undecan-3-yl)ethyl)-1H-indol-7-yl)benzenesulfonic acid amide]"
18,106,"Cn1c2c(c3c(Cl)cccc31)C(=O)N(c1ccc3ccn(CC(=O)N4CCC5(CC4)CCN(c4ccncc4)CC5)c3c1)C2 [Compound G-23, 8-Chloro-4-methyl-2-[1-[2-oxo-2-(9-pyridin-4-yl-3,9-diazaspiro[5.5]undecan-3-yl)-ethyl]-1H-indol-6-yl]-3,4-dihydro-2H-pyrrolo[3,4-b]indol-1-one]"
19,103,"COc1cc(C)c(S(=O)(=O)NCc2cccc3ccn(CC(=O)N4CCC5(CC4)CCN(c4ccncc4)CC5)c23)c(C)c1 [Compound G-24, 4-Methoxy-2,6-dimethyl-N-[[1-[2-oxo-2-(9-pyridin-4-yl-3,9-diazaspiro[5.5]undecan-3-yl)-ethyl]-1H-indol-7-yl]-methyl]-benzenesulfonic acid amide]"
20,102,"Cc1cccc2c1C(=O)N(c1ccc3ccn(CC(=O)N4CCC5(CC4)CCN(c4ccncc4)CC5)c3c1)C2 [Compound G-26, 7-Methyl-2-[1-[2-oxo-2-(9-pyridin-4-yl-3,9-diazaspiro[5.5]undecan-3-yl)-ethyl]-1H-indol-6-yl]-2,3-dihydro-isoindol-1-one]"
21,99,"Cc1ccc2n1C(=O)N(c1ccc3ccn(CC(=O)N4CCC5(CC4)CCN(c4ccncc4)CC5)c3c1)C2 [Compound G-27, 5-Methyl-2-[1-[2-oxo-2-(9-pyridin-4-yl-3,9-diazaspiro[5.5]undecan-3-yl)-ethyl]-1H-indol-6-yl]-1,2-dihydro-pyrrolo[2,1-e]imidazol-3-one]"
22,54,"O=C(Cn1ccc2ccc(N3CCn4c(c(Cl)c5ccccc54)C3=O)cc21)N1CCC2(CC1)CCN(c1ccncc1)CC2 [Compound G-31, 10-Chloro-2-[1-[2-oxo-2-(9-pyridin-4-yl-3,9-diazaspiro[5.5]undecan-3-yl)-ethyl]-1H-indol-6-yl]-3,4-dihydro-2H-pyrazino[1,2-a]indol-1-one]"

# From US8492559B2, “Substituted indole compounds” (Gruenenthal GmbH, priority 2009, dated 2013)
